Test results reported in PubChem BioAssay (NCI).
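GI50 = concentration required for 50% inhibition of growth. TGI: concentration producing complete growth inhibition.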

Experiments:
Assay in all cases: growth of human tumour cells (NCI), 384-well format
[1] = test system: 786-0 renal
[2] = test system: A498 renal
[3] = test system: A549 NSCLC
[4] = test system: ACHN renal
[5] = test system: BT-549 breast
[6] = test system: CAKI-1 renal
[7] = test system: CCRF-CEM leukemia
[8] = test system: COLO 205 colon
[9] = test system: DU-145 prostate
[10] = test system: EKVX NSCLC
[11] = test system: HCC-2998 colon
[12] = test system: HCT-15 colon
[13] = test system: HL-60(TB) leukemia
[14] = test system: HOP-62 NSCLC
[15] = test system: HOP-92 NSCLC
[16] = test system: HS 578T breast
[17] = test system: HT29 colon
[18] = test system: IGROV1 ovarian
[19] = test system: K-562 leukemia
[20] = test system: KM12 colon
[21] = test system: LOX IMVI melanoma
[22] = test system: M14 melanoma
[23] = test system: MALME-3M melanoma
[24] = test system: MCF7 breast
[25] = test system: MDA-MB-231 breast
[26] = test system: MDA-MB-435 melanoma
[27] = test system: MDA-MB-468 breast
[28] = test system: MOLT-4 leukemia
[29] = test system: NCI-H226 lung
[30] = test system: NCI-H23 lung
[31] = test system: NCI-H322M lung
[32] = test system: NCI-H460 NSCLC
[33] = test system: NCI-H522 lung
[34] = test system: NCI/ADR-RES ovarian
[35] = test system: OVCAR-3 ovarian
[36] = test system: OVCAR-4 ovarian
[37] = test system: OVCAR-5 ovarian
[38] = test system: OVCAR-8 ovarian
[39] = test system: PC-3 prostate
[40] = test system: RPMI-8226 leukemia
[41] = test system: RXF 393 renal
[42] = test system: SF-268 CNS
[43] = test system: SF-295 CNS
[44] = test system: SF-539 CNS
[45] = test system: SK-MEL-28 melanoma
[46] = test system: SK-MEL-5 melanoma
[47] = test system: SK-OV-3 ovarian
[48] = test system: SN12C renal
[49] = test system: SNB-19 CNS
[50] = test system: SNB-75 CNS
[51] = test system: SR leukemia
[52] = test system: SW-620 colon
[53] = test system: T-47D breast
[54] = test system: TK-10 renal
[55] = test system: U251 glioblastoma
[56] = test system: UACC-257 melanoma
[57] = test system: UACC-62 melanoma
[58] = test system: UO-31 renal

With `COc1cc(CCc2cc(NC(=O)c3ccc(N4C[C@@H](C)N[C@@H](C)C4)cc3)n[nH]2)cc(OC)c1` as the compound, how does the GI50 [1] read?
Its GI50 is 3.07 µM.

And the TGI [1]?
The TGI was 9.35 µM.

What about the GI50 [2] of the same compound?
Its GI50 is 3.66 µM.

And the TGI [2]?
Its TGI is 13.7 µM.

And the GI50 [3]?
The GI50 was 4.71 µM.

What about the TGI [3] of the same compound?
The TGI was 15.7 µM.

And the GI50 [4]?
Its GI50 is 4.46 µM.

What about the TGI [4] of the same compound?
The TGI was 15.9 µM.

And the GI50 [5]?
The GI50 was 1.95 µM.

And the TGI [5]?
The TGI was 8.13 µM.

What about the GI50 [6] of the same compound?
Its GI50 is 3.65 µM.

What about the TGI [6] of the same compound?
Its TGI is 14 µM.

And the GI50 [7]?
The GI50 was 2.33 µM.

What about the TGI [7] of the same compound?
Its TGI is 4.13 µM.

What about the GI50 [8] of the same compound?
Its GI50 is 2.31 µM.

What about the TGI [8] of the same compound?
The TGI was 5.36 µM.

And the GI50 [9]?
Its GI50 is 5.91 µM.

What about the TGI [9] of the same compound?
The TGI was 18 µM.

What about the GI50 [10] of the same compound?
Its GI50 is 10.4 µM.

And the TGI [10]?
The TGI was 22.2 µM.

And the GI50 [11]?
Its GI50 is 3.82 µM.

What about the TGI [11] of the same compound?
Its TGI is 12.8 µM.

And the GI50 [12]?
The GI50 was 3.39 µM.

And the TGI [12]?
The TGI was 11.2 µM.

What about the GI50 [13] of the same compound?
The GI50 was 1.83 µM.

What about the TGI [13] of the same compound?
The TGI was 3.28 µM.

And the GI50 [14]?
The GI50 was 5.65 µM.

What about the TGI [14] of the same compound?
Its TGI is 17.3 µM.

What about the GI50 [15] of the same compound?
Its GI50 is 3.61 µM.

And the TGI [15]?
Its TGI is 15 µM.

And the GI50 [16]?
Its GI50 is 2.19 µM.

What about the TGI [16] of the same compound?
The TGI was 4.58 µM.

What about the GI50 [17] of the same compound?
The GI50 was 1.85 µM.

And the TGI [17]?
Its TGI is 3.72 µM.

And the GI50 [18]?
Its GI50 is 3.8 µM.

What about the TGI [18] of the same compound?
The TGI was 14 µM.

And the GI50 [19]?
Its GI50 is 2.5 µM.

What about the TGI [19] of the same compound?
Its TGI is 4.83 µM.

And the GI50 [20]?
The GI50 was 0.0516 µM.

And the TGI [20]?
The TGI was 1.46 µM.

What about the GI50 [21] of the same compound?
The GI50 was 1.9 µM.

What about the TGI [21] of the same compound?
The TGI was 3.58 µM.

And the GI50 [22]?
Its GI50 is 1.71 µM.

And the TGI [22]?
Its TGI is 3.35 µM.

What about the GI50 [23] of the same compound?
The GI50 was 2.03 µM.

And the TGI [23]?
The TGI was 4.37 µM.

What about the GI50 [24] of the same compound?
The GI50 was 3.06 µM.

And the TGI [24]?
Its TGI is 10.9 µM.

And the GI50 [25]?
Its GI50 is 5.81 µM.

And the TGI [25]?
The TGI was 18.3 µM.

And the GI50 [26]?
The GI50 was 3.26 µM.

And the TGI [26]?
Its TGI is 10.8 µM.

What about the GI50 [27] of the same compound?
Its GI50 is 3.46 µM.

What about the TGI [27] of the same compound?
The TGI was 6.61 µM.

And the GI50 [28]?
Its GI50 is 1.86 µM.

And the TGI [28]?
Its TGI is 3.36 µM.

And the GI50 [29]?
Its GI50 is 1.49 µM.

And the TGI [29]?
Its TGI is 10.9 µM.

And the GI50 [30]?
The GI50 was 2.42 µM.

And the TGI [30]?
The TGI was 6.77 µM.

What about the GI50 [31] of the same compound?
Its GI50 is 5.5 µM.

And the TGI [31]?
Its TGI is 17.4 µM.

What about the GI50 [32] of the same compound?
The GI50 was 3.39 µM.

And the TGI [32]?
The TGI was 10.9 µM.

What about the GI50 [33] of the same compound?
The GI50 was 5.63 µM.

And the TGI [33]?
The TGI was 17.9 µM.

What about the GI50 [34] of the same compound?
The GI50 was 17.5 µM.

What about the TGI [34] of the same compound?
Its TGI is 31.5 µM.

And the GI50 [35]?
Its GI50 is 11.9 µM.

What about the TGI [35] of the same compound?
The TGI was 24.3 µM.

And the GI50 [36]?
Its GI50 is 6.69 µM.

And the TGI [36]?
The TGI was 19.7 µM.

And the GI50 [37]?
Its GI50 is 3.22 µM.

What about the TGI [37] of the same compound?
Its TGI is 9.57 µM.

What about the GI50 [38] of the same compound?
Its GI50 is 9.65 µM.

And the TGI [38]?
Its TGI is 21.5 µM.

And the GI50 [39]?
The GI50 was 4.91 µM.

What about the TGI [39] of the same compound?
The TGI was 16.1 µM.

What about the GI50 [40] of the same compound?
The GI50 was 2.26 µM.

And the TGI [40]?
The TGI was 4.41 µM.

What about the GI50 [41] of the same compound?
The GI50 was 2.13 µM.

What about the TGI [41] of the same compound?
Its TGI is 5.28 µM.

And the GI50 [42]?
The GI50 was 5.42 µM.

And the TGI [42]?
The TGI was 18.2 µM.

What about the GI50 [43] of the same compound?
The GI50 was 4.91 µM.

What about the TGI [43] of the same compound?
Its TGI is 15.5 µM.

What about the GI50 [44] of the same compound?
The GI50 was 1.69 µM.

And the TGI [44]?
The TGI was 4.18 µM.

And the GI50 [45]?
Its GI50 is 2.33 µM.

What about the TGI [45] of the same compound?
Its TGI is 5.37 µM.

What about the GI50 [46] of the same compound?
The GI50 was 1.59 µM.

And the TGI [46]?
Its TGI is 2.95 µM.

And the GI50 [47]?
Its GI50 is 2.99 µM.

And the TGI [47]?
The TGI was 11 µM.

And the GI50 [48]?
The GI50 was 2.54 µM.

And the TGI [48]?
Its TGI is 10.1 µM.

What about the GI50 [49] of the same compound?
The GI50 was 15.3 µM.

And the TGI [49]?
The TGI was 28.8 µM.

What about the GI50 [50] of the same compound?
The GI50 was 4.55 µM.

And the TGI [50]?
The TGI was 17.1 µM.

And the GI50 [51]?
Its GI50 is 1.8 µM.

And the TGI [51]?
The TGI was 3.21 µM.

And the GI50 [52]?
The GI50 was 4.21 µM.

What about the TGI [52] of the same compound?
Its TGI is 15.3 µM.

And the GI50 [53]?
The GI50 was 11.1 µM.

What about the TGI [53] of the same compound?
The TGI was 23.2 µM.

What about the GI50 [54] of the same compound?
The GI50 was 11.8 µM.

And the TGI [54]?
The TGI was 24.2 µM.

And the GI50 [55]?
Its GI50 is 6.52 µM.

And the TGI [55]?
The TGI was 19 µM.

And the GI50 [56]?
Its GI50 is 1.53 µM.

What about the TGI [56] of the same compound?
The TGI was 2.9 µM.

What about the GI50 [57] of the same compound?
Its GI50 is 3.07 µM.

What about the TGI [57] of the same compound?
Its TGI is 10.7 µM.

What about the GI50 [58] of the same compound?
Its GI50 is 11.1 µM.

And the TGI [58]?
The TGI was 23.9 µM.
